The values that follow are results of earlier work, collected in US20130324521A1, “IMPLANT FOR TREATING OR PREVENTING AN ANEURYSM” (priority 2010, published 2013).

Molecules are shown by their SMILES.

With `Cn1cncc1[C@@](N)(c1ccc(Cl)cc1)c1ccc2c(c1)c(-c1cccc(Cl)c1)cc(=O)n2C` [R11577, Tipifarnib], the “tolerability of oral administration” value (oral administration) was “tolerated well”. Where the note is “use as accredited therapeutic agent in oncological therapy”, the toxicity entry is recorded as “low toxicity”.
